# Measurements published in publication PMC7399337, “Biological Properties and Absolute Configuration of Flavanones From Calceolaria thyrsiflora Graham” (Frontiers in Pharmacology, 2020).
# Like-named read-outs stand apart in the source and are kept apart here.
# Assays:
# 5-hLOX = biological target: T1, 5-hLOX (Homo sapiens, UniProt P09917); assay: In vitro 5-hLOX enzyme assay (H2DCFDA fluorescence); assay type: biochemical; conditions: for Type of inhibition: 5-hLOX; for inhibition at 10 µM: Flavanones at 10 µM
# T1 construct: purchased Cayman Chemicals Inc. (Ann Arbor, MI, USA)
# T1 sequence (P09917 1-674): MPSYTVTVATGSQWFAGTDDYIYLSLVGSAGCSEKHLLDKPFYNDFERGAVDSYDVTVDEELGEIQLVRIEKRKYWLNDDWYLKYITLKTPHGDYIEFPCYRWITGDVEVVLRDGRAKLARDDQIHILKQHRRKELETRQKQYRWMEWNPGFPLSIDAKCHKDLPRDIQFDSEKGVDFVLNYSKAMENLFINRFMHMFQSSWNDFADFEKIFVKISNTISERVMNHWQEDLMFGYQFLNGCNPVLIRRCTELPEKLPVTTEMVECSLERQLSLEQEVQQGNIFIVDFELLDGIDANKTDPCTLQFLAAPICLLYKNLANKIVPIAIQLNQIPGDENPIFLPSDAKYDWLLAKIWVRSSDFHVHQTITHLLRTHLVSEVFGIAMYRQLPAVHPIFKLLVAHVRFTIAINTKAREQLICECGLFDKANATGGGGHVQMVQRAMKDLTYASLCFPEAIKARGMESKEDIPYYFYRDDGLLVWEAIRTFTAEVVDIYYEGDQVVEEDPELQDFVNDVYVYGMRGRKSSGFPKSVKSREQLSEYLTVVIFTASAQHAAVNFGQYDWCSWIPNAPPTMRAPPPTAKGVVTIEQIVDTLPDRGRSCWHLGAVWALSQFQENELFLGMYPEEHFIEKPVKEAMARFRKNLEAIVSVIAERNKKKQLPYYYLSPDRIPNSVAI
# Experimental: The commercially available enzyme 5-hLOX from Cayman Chemicals Inc. (Ann Arbor, MI, USA), was diluted (1:500) in the assay buffer. This contained 4-(2-hydroxyethyl)-1-piperazineethane sulfonic acid (HEPES) 50 mM, ethylenediamine tetraacetic acid (EDTA) 2 mM, adenosine triphosphate (ATP) 10 μM, and CaCl2 10 μM at pH 7.5) admixed with 10 μM of H2DCFDA. The reaction mixture was incubated for 15 min in the assay plate. Later, 280 μL of buffer and 10 μM of inhibitors were added per well and incubated for 30 min at 37°C. Finally, the reaction was started by adding a suitable concentration of arachidonic acid (0.5 μM) and the fluorescence was read in a multimode detector Synergy™ HT Multi-Mode Microplate Reader (Biotek, Bad Friedrichshall, Germany) […] after incubation at room temperature for 1 h. The IC50 values were obtained for analysis of oxidation of H2DCFDA dye to the highly fluorescent 2’,7’-dichloro-fluorescein (DCF) using the non-linear curve-fitting program. […] All data were collected in duplicate and the assays were performed on different days to ensure reproducibility.
# S. aureus NTCC8325-4 = assay: Antibacterial MIC, CLSI microdilution, human pathogens; assay type: cell-based; conditions: Staphylococcus aureus, NTCC83254, 18 h, read-out: Minimum inhibitory concentration (MIC)
# Experimental: (§1) Briefly, stock solutions (5 mg/ml) of compounds in DMSO were diluted in Mueller-Hinton broth (MHB) to the different two-fold assay concentrations. […] The obtained solution was added to MHB and serially two-fold diluted in a 96-well microplate. A sample of 100 μL of inoculum 1.5 × 10^6 colony forming unit (CFU) ml^-1 in MHB was added and then incubated at 37°C for 18 h. The assay was repeated three times. Wells containing MHB, 100 μL of inoculum, and DMSO served as negative controls.
# E. coli 33.1 = assay: as above; assay type: cell-based; conditions: Escherichia coli; E. coli 33.1 (multi-resistant); 18 h; read-out: Minimum inhibitory concentration (MIC)
# Experimental: as §1
# S. aureus MRSA 97-7 = assay: as above; assay type: cell-based; conditions: Staphylococcus aureus, 18 h, read-out: Minimum inhibitory concentration (MIC)
# Experimental: as §1
# E. coli ATCC25922 = assay: as above; assay type: cell-based; conditions: Escherichia coli, 18 h, read-out: Minimum inhibitory concentration (MIC)
# Experimental: as §1
# S. aureus MRSA 622-4 = assay: as above; assay type: cell-based; conditions: Staphylococcus aureus, 18 h, read-out: Minimum inhibitory concentration (MIC)
# Experimental: as §1
IC50 (5-hLOX; read-out: IC50 (5-hLOX)) [µM],Compound,IC50 (5-hLOX) [µM],Ki (5-hLOX) [µM],Type of inhibition (5-hLOX),inhibition at 10 µM (5-hLOX) [%],MIC (S. aureus NTCC8325-4) [µg/mL],MIC (E. coli 33.1) [µg/mL],MIC (S. aureus MRSA 97-7) [µg/mL],MIC (E. coli ATCC25922) [µg/mL],MIC (S. aureus MRSA 622-4) [µg/mL]
,"COc1cc(O)c2c(c1)O[C@H](c1ccc(O)cc1)CC2=O [Compound 1, (-)-(2S)-5,4’-dihydroxy-7-methoxyflavanone]",11.3,4.71,non-competitive,61 ± 1.34,> 100,> 100,> 100,> 100,> 100
0.1,"COc1cc(O)c2c(c1)O[C@H](c1ccc(O)c(O)c1)CC2=O [Compound 2, (-)-(2S)-5,3’,4’-trihydroxy-7-methoxyflavanone]",,,competitive,93 ± 0.791,> 100,> 100,50,> 100,> 100
